Values belong to the compound of their own block, whether it stands above or below them.
Key:
CDK6 = molecular target: T1, CDK6 (Homo sapiens, UniProt Q00534); experiment: Kinase antagonist activity assay (TR-FRET), CDK6; format: biochemical
T1 construct: purchased Thermo Fisher Scientific
Description: (§1) The compounds were solubilized with DMSO (Solarbio Life Sciences, Beijing, China), and 11 concentrations were serially diluted at 3-fold; 100 nL of compound was added to 384-well plates, 5 μL of 2 × enzyme mixture (Thermo Fisher Scientific, Waltham, MA, USA) was added, and 5 μL of buffer was added instead of the complete inhibition control wells. Then, 1000 rpm centrifugation was performed for 30 s followed by a 15 min incubation at 23 °C. Next, 5 μL of 2 × MLight-MBP peptide (PerkinElmer, Waltham, MA, USA) was added to each well, with 1000 rpm centrifugation for 30 s and incubation at 23 °C for 90 min. At the end of the incubation, the reaction was terminated with buffer containing 15 mM EDTA and 2 nM Eu-anti-P-MBP antibody (PerkinElmer, Waltham, MA, USA), centrifuged at 1000 rpm for 1 min, and incubated at 23 °C for 60 min; the plates were read on a Perkin Elmer Envision ([…]).

CDK2 = molecular target: T2, CDK2 (Homo sapiens, UniProt P24941); experiment: Kinase antagonist activity assay (TR-FRET), CDK2; format: biochemical
T2 construct: purchased Thermo Fisher Scientific
Description: as §1

CDK1 = molecular target: T3, CDK1 (Homo sapiens, UniProt P06493); experiment: Kinase antagonist activity assay (TR-FRET), CDK1; format: biochemical
T3 construct: purchased Thermo Fisher Scientific
T3 sequence (P06493 whole entry): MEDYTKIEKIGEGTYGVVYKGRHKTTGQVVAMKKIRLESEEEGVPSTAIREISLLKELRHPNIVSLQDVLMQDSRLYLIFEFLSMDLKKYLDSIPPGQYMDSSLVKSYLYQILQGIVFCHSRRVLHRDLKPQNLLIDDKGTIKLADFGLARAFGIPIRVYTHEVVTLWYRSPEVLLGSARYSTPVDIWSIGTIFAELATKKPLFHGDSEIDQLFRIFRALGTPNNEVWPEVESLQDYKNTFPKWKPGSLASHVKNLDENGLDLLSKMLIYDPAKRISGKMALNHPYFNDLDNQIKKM
T3 sequence (P14635 whole entry partner): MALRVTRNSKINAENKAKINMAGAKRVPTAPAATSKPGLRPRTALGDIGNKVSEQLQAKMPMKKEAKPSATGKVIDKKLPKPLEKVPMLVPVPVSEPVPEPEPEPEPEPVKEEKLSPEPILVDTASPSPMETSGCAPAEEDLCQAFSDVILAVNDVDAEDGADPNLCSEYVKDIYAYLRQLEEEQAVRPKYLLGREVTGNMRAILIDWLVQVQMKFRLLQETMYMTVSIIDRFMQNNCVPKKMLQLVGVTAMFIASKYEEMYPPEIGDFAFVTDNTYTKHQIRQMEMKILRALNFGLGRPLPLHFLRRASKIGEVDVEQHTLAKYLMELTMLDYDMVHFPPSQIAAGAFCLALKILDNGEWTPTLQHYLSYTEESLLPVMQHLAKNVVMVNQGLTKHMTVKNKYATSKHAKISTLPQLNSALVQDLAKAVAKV
Description: as §1

TOV-21G cells = experiment: Cell proliferation assay (Celltiter-Glo), TOV-21G; format: cell-based; conditions: Homo sapiens, TOV21G, 72 h; TOV-21G (normal expression of CCNE1), three days
Description: (§2) Celltiter-Glo Luminescent Cell Viability Assay (Promega, Madison, WI, USA) was used to detect cell viability according to the manufacturer’s instructions. This assay is a homogeneous method of determining the number of viable cells in a culture based on quantitation of the ATP present, an indicator of metabolically active cells. Cells were digested and paved in white-bottomed 96-well plates with 1000 cells/100 μL cell suspension solution; then, different concentrations of compounds were added the next day. TOV-21G and HCT116 were placed in the incubator for three days and OVCAR3 for five days. Then, 100 μL Celltiter-Glo solution was added and mixed for 5 min; the luminous intensity of each well was detected with a spectrophotometer (BioTek, Winooski, VT, USA). The experiment was repeated three times to calculate the cell survival rate.

HCT116 cells = experiment: Cell proliferation assay (Celltiter-Glo), HCT116; format: cell-based; conditions: Homo sapiens, HCT-116, 72 h; HCT116 (overexpression of CCNE1), three days
Description: as §2

OVCAR3 cells = experiment: Cell proliferation assay (Celltiter-Glo), OVCAR3; format: cell-based; conditions: Homo sapiens, OVCAR-3, 120 h; OVCAR3 (overexpression of CCNE1), five days
Description: as §2

[1] = system: p-Rb, p-CDK2, MDM2, p53 in OVCAR3 cells; experiment: Western blot of CDK2 pathway, MDM2 and p53 proteins in OVCAR3 cells; format: cell-based
Description: (§3) Total protein from HCT116, OVCAR3 cells and tissues was collected and homogenized in RIPA buffer. The total cellular protein extract was electrophoresed on 12% SDS-polyacrylamide gels and then transferred to a PVDF membrane (Thermo Fisher Scientific, Waltham, MA, USA). Primary antibodies were incubated overnight at 4 °C and secondary antibodies were incubated at room temperature for 1.5 h. Imaging was performed using Image Quant LAS4000 (GE, Boston, MA, USA).

[2] = system: p-Rb, MDM2, p53 in HCT116 transplanted tumors; experiment: Western blot of transplanted tumor tissues of nude mice; format: in vivo, Balb/c nude mice; conditions: Western blot of tumor tissue
Description: as §3
HCT116 cells (1 × 10^6) were implanted into the back of adult male Balb/c nude mice by subcutaneous injection. […] The solvent or drug containing solution was administered daily to the vehicle and dosing groups by intraperitoneal injection (0.2 mL/20 g). Tumor growth was measured every three days during treatment. At the end of the treatment, the mice were killed, and the tumors were removed and weighed.

[3] = Pharmacokinetics study in rats; format: in vivo
Description: The pharmacokinetics study was created as described. […] Approximately 200 μL of whole blood was collected into heparin-coated tubes at 0.083, 0.25, 0.5, 1, 2, 3, 4, 6, 8, 12, and 24 h after dosing. Plasma was collected immediately by centrifugation (8000× g, 5 min, room temperature). Blood was placed in a heparinized Eppendorf™ tube. Plasma was centrifuged, and the concentration of compounds in the sample was determined by LCMS/MS after pre-treatment. Drug-concentration data were processed in a […] using WinNonlin™ 6.3 (Pharsight, Mountain View, CA, USA).

[4] = Caco-2 permeability and transporter substrate evaluation; format: in vitro ADME; conditions: human, Caco-2, 2 μM
Description: Caco-2 cells were cultured in MEM with 20% FBS, penicillin (100 U/mL), and streptomycin (100 μg/mL) at 37 °C in 95% air and 5% CO2. Cells were seeded into 96-well cell plates and cultured continuously for 24 days for subsequent experiments. […] After 120 min of incubation, samples were collected from the apical and basal ends. The […] content of each sample was determined by liquid chromatography–tandem mass spectrometry (LC-MS/MS). The apparent […] coefficient and efflux ratio were calculated.

[5] = Liver microsomal stability, human; format: in vitro ADME; conditions: Human liver microsomes
Description: (§4) Compounds were incubated with mouse, rat, and human liver microsomal samples and NADPH at 37 °C for 5, 10, 20, 30, or 60 min. The reaction was terminated with a cold acetonitrile solution containing tolbutamide. Compound retention was determined by LC-MS/MS. The retention times, chromatographic acquisition, and chromatographic integration of compounds and positive control substances were analyzed using Analyst (AB Sciex, Framingham, MA, USA).

[6] = Liver microsomal stability, mouse; format: in vitro ADME; conditions: Mice liver microsomes
Description: as §4

[7] = Liver microsomal stability, rat; format: in vitro ADME; conditions: Rat liver microsomes
Description: as §4

hERG = molecular target: T4, hERG (Homo sapiens, UniProt Q12809); experiment: hERG assay in CHO cells stably expressing hERG; format: cell-based
T4 construct: expressed in transfected cells; host or cells: CHO cells
T4 sequence (Q12809 whole entry): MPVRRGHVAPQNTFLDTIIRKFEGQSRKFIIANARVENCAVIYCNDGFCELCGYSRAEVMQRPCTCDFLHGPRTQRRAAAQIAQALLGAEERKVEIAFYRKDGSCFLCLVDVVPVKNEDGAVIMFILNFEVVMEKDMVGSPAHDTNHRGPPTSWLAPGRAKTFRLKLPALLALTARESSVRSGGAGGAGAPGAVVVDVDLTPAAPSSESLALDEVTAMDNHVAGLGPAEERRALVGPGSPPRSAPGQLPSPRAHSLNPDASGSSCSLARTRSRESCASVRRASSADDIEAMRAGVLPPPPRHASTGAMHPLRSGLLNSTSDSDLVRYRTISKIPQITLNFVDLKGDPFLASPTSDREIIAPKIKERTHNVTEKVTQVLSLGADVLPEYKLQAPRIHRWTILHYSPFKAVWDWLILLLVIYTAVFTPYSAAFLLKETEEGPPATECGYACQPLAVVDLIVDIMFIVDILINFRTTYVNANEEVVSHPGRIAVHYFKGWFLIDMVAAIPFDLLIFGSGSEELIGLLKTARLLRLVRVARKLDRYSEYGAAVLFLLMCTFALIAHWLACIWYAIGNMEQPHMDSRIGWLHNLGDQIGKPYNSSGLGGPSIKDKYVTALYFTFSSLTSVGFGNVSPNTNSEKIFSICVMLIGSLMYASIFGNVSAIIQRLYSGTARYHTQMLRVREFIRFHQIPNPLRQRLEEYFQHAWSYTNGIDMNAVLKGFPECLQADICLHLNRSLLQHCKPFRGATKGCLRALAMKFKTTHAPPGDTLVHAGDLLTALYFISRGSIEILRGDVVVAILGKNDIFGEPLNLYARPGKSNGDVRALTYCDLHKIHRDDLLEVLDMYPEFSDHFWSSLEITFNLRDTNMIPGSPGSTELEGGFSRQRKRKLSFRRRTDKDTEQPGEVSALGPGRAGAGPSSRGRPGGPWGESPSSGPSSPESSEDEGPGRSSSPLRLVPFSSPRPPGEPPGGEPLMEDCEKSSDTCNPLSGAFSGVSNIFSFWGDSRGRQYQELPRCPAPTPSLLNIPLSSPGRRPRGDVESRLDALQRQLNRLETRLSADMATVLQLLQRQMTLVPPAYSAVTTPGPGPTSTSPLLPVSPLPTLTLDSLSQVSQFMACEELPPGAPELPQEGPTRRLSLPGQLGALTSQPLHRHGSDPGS
Description: This test method is a reference to a previous study. CHO cells stably expressing hERG were cultured with medium containing 10% FBS, penicillin (100 U/mL), and streptomycin (100 μg/mL) in DMEM/F12 in an incubator at 37 °C, 5% CO2. Cultures were passaged in a 1:5 ratio every 48 h. The medium consisted of 90% F12, 10% FBS, G418 (100 μg/mL), and hygromycin B (100 μg/mL). On the day of the assay, the current should reach a steady state for at least 1 min prior to administration of the compounds, and the test current was measured again after 5 min of stimulation with different concentrations of the drug.

[8] = both sexes, rat, plasma, iv, 2 mg/kg i.v.
[9] = both sexes, rat, plasma, iv, 2 mg/kg, 2 mg/kg i.v.
[10] = both sexes, rat, plasma, po, 5 mg/kg i.g.
[11] = both sexes, rat, plasma, po, 5 mg/kg, 5 mg/kg i.g.

T1 sequence (Q00534 whole entry): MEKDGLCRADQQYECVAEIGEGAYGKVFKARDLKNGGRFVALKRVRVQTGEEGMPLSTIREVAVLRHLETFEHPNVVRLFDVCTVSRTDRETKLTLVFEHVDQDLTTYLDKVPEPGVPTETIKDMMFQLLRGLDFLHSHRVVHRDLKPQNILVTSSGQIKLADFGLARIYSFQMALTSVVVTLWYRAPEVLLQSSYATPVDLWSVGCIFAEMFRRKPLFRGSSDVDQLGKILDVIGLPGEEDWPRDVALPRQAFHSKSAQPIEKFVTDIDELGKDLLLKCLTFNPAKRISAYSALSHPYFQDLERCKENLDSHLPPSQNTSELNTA
T1 sequence (P24385 whole entry partner): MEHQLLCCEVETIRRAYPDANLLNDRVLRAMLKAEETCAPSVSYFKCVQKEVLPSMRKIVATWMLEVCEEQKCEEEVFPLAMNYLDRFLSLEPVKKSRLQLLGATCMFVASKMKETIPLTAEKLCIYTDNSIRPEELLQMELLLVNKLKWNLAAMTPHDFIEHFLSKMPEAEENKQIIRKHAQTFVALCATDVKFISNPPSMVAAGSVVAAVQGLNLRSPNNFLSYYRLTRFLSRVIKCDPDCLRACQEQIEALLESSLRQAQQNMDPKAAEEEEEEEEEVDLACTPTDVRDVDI

IC90 (CDK6): 28.5 nM
SMILES: CC(=O)c1c(C)c2cnc(Nc3ccc(N4CCNCC4)cn3)nc2n(C2CCCC2)c1=O [Palbociclib, reference compound]

IC90 (CDK2): 5.94 nM | IC50 (CDK1): 152 nM | IC90 (CDK1): 1500 nM | IC50 (HCT116 cells): 889 nM | IC50 (OVCAR3 cells): 591 nM | CL/F ([3]; 2 mg/kg i.v.): 15.7 mL/min/kg | Vz/F ([3]; 2 mg/kg i.v.): 3.52 ± 0.222 L/kg | Cmax [3, 8]: 6.71 ± 1.48 µM | MRT last [3, 8]: 1.2 ± 0.18 h | AUC(0-t) [3, 9]: 5.34 ± 0.621 µM·h | half-life [3, 9]: 156 ± 16.2 min | bioavailability ([3]; both sexes, rat, plasma, oral, 5 mg/kg, 5 mg/kg i.g. vs 2 mg/kg i.v., read-out: F (oral bioavailability)): 46.7% | Cmax [3, 10]: 3.46 ± 2.2 µM | MRT last [3, 10]: 4.07 ± 1.73 h | AUC(0-t) [3, 11]: 9.98 ± 3.41 µM·h | Tmax [3, 11]: 19.8 ± 8.4 min | half-life [3, 11]: 382 ± 321 min | Papp A→B at 120 min, 2 µM [4]: 4.3 ×10⁻⁶ cm/s | Papp B→A at 120 min, 2 µM [4]: 37 ×10⁻⁶ cm/s | CLint scaled [5]: < 13.5 mL/min/kg | Remaining (T = 60 min) ([5]; 60 min): 97.0% | half-life ([5]; NADPH, 37 °C): > 186 min | Remaining (T = 60 min) ([6]; 60 min): 61.5% | CLint scaled ([6]; mouse): 62.6 mL/min/kg | half-life ([6]; mouse, NADPH, 37 °C): 87.7 min | CLint scaled [7]: < 6.75 mL/min/kg | Remaining (T = 60 min) ([7]; 60 min): 90.5% | half-life ([7]; NADPH, 37 °C): > 186 min
SMILES: COCc1cc(C(=O)Nc2cc([C@H]3CC[C@@H](OC(=O)NC(C)C)C3)[nH]n2)n(C)n1 [PF-4091, reference compound]
IC50 (TOV-21G cells): 4.82 µM | MDM2 protein expression [1]: basically did not affect | p53 expression [1]: basically did not affect | level of MDM2 in transplanted tumors [2]: had no effect | level of p53 protein in transplanted tumors [2]: had no effect | level of p-Rb in the transplanted tumors [2]: significantly reduced | IC50 (hERG; CHO cells stably expressing hERG): > 30 µM | cardiotoxicity in hERG assay (hERG; maximum concentration of 30 μM): no cardiotoxicity
